Source: the SangsterLogP compilation

Test: method code SF-HPLC, from DOI: 10.1021/ac9902291

Row | SMILES | logP
1 | c1ccc2c(c1)ccc1c3ccsc3ccc21 | 5.35
2 | c1cc2ccc3cccc4sc(c1)c2c34 | 4.95
3 | c1ccc2c(c1)sc1ccccc12 | 4.36
4 | c1ccc2c(c1)ccc1sc3ccccc3c12 | 5.19
5 | O=S1(=O)C=Cc2ccccc21 | 1.01

Continued, values first:

Row | logP | SMILES
6 | 3.85 | Cc1cccc2ccsc12
7 | 4.55 | c1ccc2c(c1)ccc1ccsc12
8 | 4.5 | c1ccc2cc3sccc3cc2c1
9 | 4.41 | c1ccc2c(c1)ccc1sccc12
10 | 3.71 | Cc1cc2ccccc2s1
11 | 3.57 | Cc1cccc2sccc12
